# Source: patent US12036226B2, “Methods of treating subjects having diabetes with chronic kidney disease” (Poxel SA, priority 2018, dated 2024)
# Values joined by “and” are separate entries in the source; they are usually repeats but may differ in a detail not shown here. Equal entries are not always repeated. Where two headings read alike, the source gives them in different places.
# Assay: Phase 1 study of pharmacokinetics and safety of imeglimin in subjects with renal impairment compared to normal renal function
# Assay type: in vivo, human
# Settings: for AUC: read-out: AUC0-τ
# Experimental: An open-label, parallel-group, multi-center, multiple oral dose study to investigate the pharmacokinetics of imeglimin in subjects with renal impairment compared to subjects with normal renal function was completed.
# In this study, a total of 51 subjects received imeglimin at the daily dose of 1000 mg, administered either as 1000 mg QD (once a day) or 500 mg bid (twice a day) during 8 days. […] Twenty-four control subjects with normal renal function were matched to mild and moderate (10 receiving QD and 8 receiving bid regimen) and to severe (6 receiving bid regimen) renal impaired subjects. Measurement of the urine to plasma ratio of creatinine using 24 hours urine sampling was calculated (CLCrea).
# Imeglimin was administered in the morning time during 8 consecutive days in the group of subjects receiving 1000 mg once a day and in the morning and evening time during 7 consecutive days followed by a morning administration of 500 mg in the morning time on Day 8 in the group of subjects receiving 500 mg twice a day. Morning administrations on Days 1 and 8 were performed on a fasted state, after a 10 hours overnight fasting and during 4 hours after imeglimin administration.
# Inclusion Criteria: For subjects with normal renal functions: CLCrea>80 mL/min based on calculation using 24-hrs sampling on day −2. For subjects with impaired renal function: CLCrea 50 to 80 mL/min for subjects with mild renal impairment, 30 to <50 mL/min for subjects with moderate renal impairment, and <30 mL/min for subjects with severe renal impairment based on calculation using 24-hrs sampling on day −2.
# Pharmacokinetic parameters included apparent volume of distribution during the terminal phase following extravascular administration (Vz/F), area under the curve of the plasma concentration as a function of time (AUC0-t), the maximum observed concentration (Cmax), the time to maximum concentration (tmax), the plasma half-life (t1/2), the total body clearance of drug from plasma following extravascular administration (CL/F), and other parameters.
# The urinary excretion parameters of imeglimin in subjects with differing degrees of renal impairment following QD or bid oral doses of imeglimin on day 8 are summarized in Table 3 and Table 4. Parameters measured include amount of unchanged drug excreted in urine as a function of time (Ae0-t), renal clearance (CLR), and the amount of unchanged drug excreted in urine during one dosing interval (Ae0-τ), and the percentage of administered dose excreted in urine during one dosing interval (fe0-τ).
# For the evaluation of safety and tolerability of multiple oral doses of 1000 mg imeglimin QD (i.e. a total dose of 8000 mg imeglimin) or 500 mg imeglimin BID (i.e. a total dose of 7500 mg imeglimin), laboratory tests (hematology, clinical chemistry, urinalysis), determination of vital signs, ECG recordings, questioning of AEs and physical examinations were performed. […] The incidence of AEs observed within the course of the study was low. Overall 31 out of 51 subjects reported 54 treatment emergent AEs. Of these, only 15 were judged as likely related to the study drug. The majority (39 AEs) were assessed as unlikely related. Based on these low incidence no clear differences between the dose regimens and between the renal impairment groups can be shown.
# [1] = 500 mg bid oral, Day 8, CKD Stage 2 (mild renal impairment) (N = 4), geometric mean (CV %)
# [2] = 500 mg bid oral, Day 8, CKD Stage 3 (moderate renal impairment) (N = 6), geometric mean (CV %)
# [3] = 500 mg bid oral, Day 8, CKD Stage 4 (severe renal impairment) (N = 5), geometric mean (CV %)
# [4] = 500 mg bid oral, Day 8, Part 1 CKD Stage 2 (mild renal impairment; N = 4), geometric mean
# [5] = 500 mg bid oral, Day 8, Part 1 CKD Stage 3 (moderate renal impairment; N = 6), geometric mean
# [6] = 500 mg bid oral, Day 8, Part 1 normal renal function (N = 8), geometric mean
# [7] = 500 mg bid oral, Day 8, Part 2 CKD Stage 4 (severe renal impairment; N = 5), geometric mean
# [8] = 500 mg bid oral, Day 8, Part 2 normal renal function (N = 6), geometric mean
# [9] = 500 mg bid oral, Day 8, normal renal function (N = 6), geometric mean (CV %)
# [10] = 500 mg bid oral, Day 8, normal renal function (N = 8), geometric mean (CV %)
# [11] = 1000 mg QD or 500 mg bid over 8 days, all groups
# [12] = 1000 mg QD oral, Day 8, CKD Stage 3 (moderate renal impairment) (N = 6), geometric mean
# [13] = 1000 mg QD oral, Day 8, CKD stage 2 (mild renal impairment; N = 5), geometric mean
# [14] = 1000 mg QD oral, Day 8, normal renal function (N = 10), geometric mean
# [15] = human, plasma, po, 500 mg, 500 mg bid oral, Day 8, Part 1 CKD Stage 2 (mild renal impairment; N = 4), geometric mean
# [16] = human, plasma, po, 500 mg, 500 mg bid oral, Day 8, Part 1 CKD Stage 3 (moderate renal impairment; N = 6), geometric mean
structure (smiles),measurement,setting,value
"C[C@H]1N=C(N(C)C)N=C(N)N1 [imeglimin, (6R)—N^2, N^2,6-trimethyl-3,6-dihydro-1,3,5-triazine-2,4-diamine]",Ae0-t,[1],404 (16.4) mg
same,Ae0-τ,[1],215 (11.5) mg
same,"feτ (fraction of dose excreted in urine, 12-hour dosing interval)",[1],43% and 42.9 (11.5) %
same,Ae0-t,[2],328 (22.6) mg
same,Ae0-τ,[2],199 (29.1) mg
same,"feτ (fraction of dose excreted in urine, 12-hour dosing interval)",[2],40% and 39.8 (29.1) %
same,Ae0-t,[3],357 (25.5) mg
same,Ae0-τ,[3],209 (15.6) mg
same,"feτ (fraction of dose excreted in urine, 12-hour dosing interval)",[3],42% and 41.8 (15.6) %
same,CL/F,[4],754 mL/min
same,Cpre,[4],572 ng/mL
same,CL/F,[5],485 mL/min
same,Cmin,[5],808 ng/mL
same,Cpre,[5],996 ng/mL
same,CL/F,[6],1128 mL/min
same,Cpre,[6],254 ng/mL
same,CL/F,[7],336 mL/min
same,Cmin,[7],1211 ng/mL
same,Cpre,[7],1335 ng/mL
same,CL/F,[8],1195 mL/min
same,Cmin,[8],169 ng/mL
same,Cpre,[8],209 ng/mL
same,Ae0-t,[9],298 (30.6) mg
same,Ae0-τ,[9],229 (25.3) mg
same,"feτ (fraction of dose excreted in urine, 12-hour dosing interval)",[9],45.9 (25.3) %
same,Ae0-t,[10],307 (37.7) mg
same,Ae0-τ,[10],222 (22.6) mg
same,"feτ (fraction of dose excreted in urine, 12-hour dosing interval)",[10],44.4 (22.6) %
same,number of treatment emergent AEs,[11],54
same,subjects reporting treatment emergent AEs,[11],31 out of 51 subjects
same,Ae0-t (unchanged drug excreted in urine),[12],453 mg
same,Ae0-τ,[12],345 mg
same,CL/F,[12],573 mL/min
same,Cpre,[12],382 ng/mL
same,feτ (percentage of dose excreted in urine during one dosing interval),[12],34.5%
same,CL/F,[13],828 mL/min
same,Cpre,[13],181 ng/mL
same,Ae0-t (unchanged drug excreted in urine),[14],460 mg
same,Ae0-τ,[14],386 mg
same,CL/F,[14],1082 mL/min
same,Cav,[14],642 ng/mL
same,Cpre,[14],136 ng/mL
same,feτ (percentage of dose excreted in urine during one dosing interval),[14],38.6%
same,"QRS-, QT intervals and corrected QTc-intervals (Bazett, Fridericia)",ECG recordings,did not reveal any relevant changes
same,vital signs,following the administration of imeglimin,did not show any clinically relevant changes
same,clinical laboratory parameters,"human, in vivo",no significant abnormality observed
same,half-life,"human, plasma, oral, across groups",13 to 26 h
same,Tmax,"human, plasma, oral, post-dose, across renal function groups and time, read-out: Median Tmax",3.5 to 5 h
same,Cmax,[15],1320 ng/mL
same,half-life,[15],26.1 h
same,AUC,[15],11100 ng·h/mL
same,concentration at 8 day,"human, plasma, po, 500 mg, 500 mg bid oral, Day 8, Part 1 CKD Stage 2 (mild renal impairment; N = 4), geometric mean, read-out: Cav",921 ng/mL
same,concentration at 8 day,"human, plasma, po, 500 mg, 500 mg bid oral, Day 8, Part 1 CKD Stage 2 (mild renal impairment; N = 4), geometric mean, read-out: Cmin",459 ng/mL
same,Vd/F,"human, plasma, po, 500 mg, 500 mg bid oral, Day 8, Part 1 CKD Stage 2 (mild renal impairment; N = 4), geometric mean, read-out: Vz/F",1700 L
same,Tmax,"human, plasma, po, 500 mg, 500 mg bid oral, Day 8, Part 1 CKD Stage 2 (mild renal impairment; N = 4), median, read-out: tmax",4 h
same,Cmax,[16],2000 ng/mL
same,half-life,[16],21.9 h
same,AUC,[16],17200 ng·h/mL
